From the supplement of paper PMC10307832

Experiments:
Experiment in all cases: relative viability (nuclei count vs DMSO), 5 days (fraction); higher = more cells survive
NCI-H23 = test system: NCI-H23
Outline: (§1)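 Lung cancer cell lines in 1536-well plates got either a single drug or a fixed anchor-drug dose together with five library-drug doses (not always all listed) in √10 steps, by pin tool, on the day after seeding. Nuclei were counted after 5 days, and relative viability is the treated-to-vehicle ratio of nuclei counts. Values are medians of duplicate plates.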

SK-LU-1 = test system: SK-LU-1
Outline: as §1

NCI-H1793 = test system: NCI-H1793
Outline: as §1

NCI-H661 = test system: NCI-H661
Outline: as §1

PC-14 = test system: PC-14
Outline: as §1

EKVX = test system: EKVX
Outline: as §1

NCI-H1993 = test system: NCI-H1993
Outline: as §1

NCI-H460 = test system: NCI-H460
Outline: as §1

ChaGo-K-1 = test system: ChaGo-K-1
Outline: as §1

NCI-H1944 = test system: NCI-H1944
Outline: as §1

EPLC-272H = test system: EPLC-272H
Outline: as §1

NCI-H322M = test system: NCI-H322M
Outline: as §1

NCI-H1792 = test system: NCI-H1792
Outline: as §1

H3255 = test system: H3255
Outline: as §1

HCC-15 = test system: HCC-15
Outline: as §1

LCLC-97TM1 = test system: LCLC-97TM1
Outline: as §1

HCC-827 = test system: HCC-827
Outline: as §1

LC-2-ad = test system: LC-2-ad
Outline: as §1

NCI-H1915 = test system: NCI-H1915
Outline: as §1

NCI-H522 = test system: NCI-H522
Outline: as §1

SW 900 = test system: SW 900
Outline: as §1

EMC-BAC-2 = test system: EMC-BAC-2
Outline: as §1

For `COCC1(CO)C(=O)C2CCN1CC2` (configuration not stated) [PRIMA-1MET] + CCNC(=O)c1noc(-c2cc(C(C)C)c(O)cc2O)c1-c1ccc(CN2CCOCC2)cc1 [Luminespib] (partner 0.01 µM), the relative viability (NCI-H23; first compound 0.2 µM) was 0.24, the relative viability (NCI-H23; first compound 0.6325 µM) was 0.234 and the relative viability (NCI-H23; first compound 2 µM) was 0.22. It also gave a relative viability (NCI-H23; first compound 6.325 µM) of 0.209, a relative viability (NCI-H23; first compound 20 µM) of 0.0464 and a relative viability (SK-LU-1; first compound 0.2 µM) of 0.203. For the same compound, the relative viability (SK-LU-1; first compound 0.6325 µM) was 0.199, the relative viability (SK-LU-1; first compound 2 µM) was 0.199 and the relative viability (SK-LU-1; first compound 6.325 µM) was 0.212. For the same compound, the relative viability (SK-LU-1; first compound 20 µM) was 0.137, the relative viability (NCI-H1793; first compound 0.2 µM) was 0.138 and the relative viability (NCI-H1793; first compound 0.6325 µM) was 0.177. It also gave a relative viability (NCI-H1793; first compound 6.325 µM) of 0.195, a relative viability (NCI-H1793; first compound 20 µM) of 0.159 and a relative viability (NCI-H661; first compound 0.2 µM) of 1.02. For the same compound, the relative viability (NCI-H661; first compound 0.6325 µM) was 0.886, the relative viability (NCI-H661; first compound 2 µM) was 0.965 and the relative viability (NCI-H661; first compound 6.325 µM) was 0.929. It also gave a relative viability (NCI-H661; first compound 20 µM) of 0.886, a relative viability (PC-14; first compound 0.2 µM) of 0.137 and a relative viability (PC-14; first compound 0.6325 µM) of 0.176. For the same compound, the relative viability (PC-14; first compound 2 µM) was 0.169, the relative viability (PC-14; first compound 6.325 µM) was 0.182 and the relative viability (PC-14; first compound 20 µM) was 0.129. The relative viability (EKVX; first compound 0.2 µM) was 1.03, the relative viability (EKVX; first compound 0.6325 µM) was 0.808 and the relative viability (EKVX; first compound 6.325 µM) was 0.805. For the same compound, the relative viability (EKVX; first compound 20 µM) was 0.729, the relative viability (NCI-H1993; first compound 0.2 µM) was 1.04 and the relative viability (NCI-H1993; first compound 0.6325 µM) was 0.829. It also gave a relative viability (NCI-H1993; first compound 2 µM) of 0.959, a relative viability (NCI-H1993; first compound 6.325 µM) of 0.996 and a relative viability (NCI-H1993; first compound 20 µM) of 0.758. It also gave a relative viability (NCI-H460; first compound 0.2 µM) of 0.0337, a relative viability (NCI-H460; first compound 0.6325 µM) of 0.0272 and a relative viability (NCI-H460; first compound 2 µM) of 0.0258. For the same compound, the relative viability (NCI-H460; first compound 6.325 µM) was 0.0312, the relative viability (NCI-H460; first compound 20 µM) was 0.0174 and the relative viability (ChaGo-K-1; first compound 0.2 µM) was 0.694. It also gave a relative viability (ChaGo-K-1; first compound 0.6325 µM) of 0.531, a relative viability (ChaGo-K-1; first compound 2 µM) of 0.57 and a relative viability (ChaGo-K-1; first compound 6.325 µM) of 0.592. It also gave a relative viability (ChaGo-K-1; first compound 20 µM) of 0.346, a relative viability (NCI-H1944; first compound 0.2 µM) of 0.671 and a relative viability (NCI-H1944; first compound 0.6325 µM) of 0.612. The relative viability (NCI-H1944; first compound 2 µM) was 0.61, the relative viability (NCI-H1944; first compound 6.325 µM) was 0.685 and the relative viability (NCI-H1944; first compound 20 µM) was 0.724. The relative viability (EPLC-272H; first compound 2 µM) was 0.277, the relative viability (EPLC-272H; first compound 6.325 µM) was 0.237 and the relative viability (EPLC-272H; first compound 20 µM) was 0.146. For the same compound, the relative viability (NCI-H322M; first compound 0.2 µM) was 0.974, the relative viability (NCI-H322M; first compound 0.6325 µM) was 0.809 and the relative viability (NCI-H322M; first compound 6.325 µM) was 0.958. It also gave a relative viability (NCI-H322M; first compound 20 µM) of 0.556, a relative viability (NCI-H1792; first compound 0.2 µM) of 0.533 and a relative viability (NCI-H1792; first compound 0.6325 µM) of 0.491. For the same compound, the relative viability (NCI-H1792; first compound 2 µM) was 0.394, the relative viability (NCI-H1792; first compound 6.325 µM) was 0.466 and the relative viability (NCI-H1792; first compound 20 µM) was 0.45. It also gave a relative viability (H3255; first compound 0.2 µM) of 0.933, a relative viability (H3255; first compound 0.6325 µM) of 0.813 and a relative viability (H3255; first compound 2 µM) of 0.741. It also gave a relative viability (H3255; first compound 6.325 µM) of 0.868, a relative viability (H3255; first compound 20 µM) of 0.91 and a relative viability (HCC-15; first compound 0.2 µM) of 0.264. The relative viability (HCC-15; first compound 0.6325 µM) was 0.232, the relative viability (HCC-15; first compound 2 µM) was 0.393 and the relative viability (HCC-15; first compound 6.325 µM) was 0.408. The relative viability (HCC-15; first compound 20 µM) was 0.197, the relative viability (LCLC-97TM1; first compound 0.2 µM) was 0.824 and the relative viability (LCLC-97TM1; first compound 0.6325 µM) was 0.531. It also gave a relative viability (LCLC-97TM1; first compound 2 µM) of 0.877, a relative viability (LCLC-97TM1; first compound 6.325 µM) of 0.841 and a relative viability (LCLC-97TM1; first compound 20 µM) of 0.674. It also gave a relative viability (HCC-827; first compound 0.2 µM) of 0.761, a relative viability (HCC-827; first compound 0.6325 µM) of 0.624 and a relative viability (HCC-827; first compound 2 µM) of 0.303. For the same compound, the relative viability (HCC-827; first compound 6.325 µM) was 0.477, the relative viability (HCC-827; first compound 20 µM) was 0.447 and the relative viability (LC-2-ad; first compound 0.2 µM) was 1.26. The relative viability (LC-2-ad; first compound 2 µM) was 0.902, the relative viability (LC-2-ad; first compound 6.325 µM) was 1.16 and the relative viability (LC-2-ad; first compound 20 µM) was 0.887. The relative viability (NCI-H1915; first compound 0.2 µM) was 0.868, the relative viability (NCI-H1915; first compound 0.6325 µM) was 0.506 and the relative viability (NCI-H1915; first compound 6.325 µM) was 0.853. The relative viability (NCI-H1915; first compound 20 µM) was 0.697, the relative viability (NCI-H522; first compound 0.2 µM) was 1.09 and the relative viability (NCI-H522; first compound 0.6325 µM) was 0.899. The relative viability (NCI-H522; first compound 2 µM) was 1.1, the relative viability (NCI-H522; first compound 6.325 µM) was 0.989 and the relative viability (NCI-H522; first compound 20 µM) was 0.838. The relative viability (SW 900; first compound 0.2 µM) was 0.171, the relative viability (SW 900; first compound 0.6325 µM) was 0.176 and the relative viability (SW 900; first compound 2 µM) was 0.162. The relative viability (SW 900; first compound 6.325 µM) was 0.136, the relative viability (SW 900; first compound 20 µM) was 0.091 and the relative viability (EMC-BAC-2; first compound 0.2 µM) was 1.37. It also gave a relative viability (EMC-BAC-2; first compound 0.6325 µM) of 1.12, a relative viability (EMC-BAC-2; first compound 6.325 µM) of 1.23 and a relative viability (EMC-BAC-2; first compound 20 µM) of 0.957.
